Measurements: patent publication US20230365542A1, “Selective Agonists of 5-HT2A Receptor and Methods of Use” (Yale University, priority 2020, published 2023)
Read-outs that look alike come from different tables or passages of the source.

Tests used:
[1] = target: T1, 5-HT2AR (Homo sapiens, UniProt P28223); assay: Calcium flux assay (FLIPR, Fluo-4), 5-HT2AR stable cell line; format: cell-based; conditions: for 5-HT2AR Rmax ± S.E.M: value in parentheses
T1 construct: expressed in transfected cells; host or cells: Flp-In 293 T-Rex (tetracycline inducible)
Method: (§1) Stable cell lines for 5-HT2AR, 5-HT2BR and 5-HT2CR generated using the Flp-In 293 T-Rex Tetracycline inducible system (Invitrogen). Tetracycline-induced cells were seeded in 384-well poly-L-lysine plates at a density of 10,000 cells/well in DMEM containing 1% dialyzed FBS at least 16-24 hr before the calcium flux assay. On the day of the assay, the cells were incubated (20 ul/well) for 1 hr at 37° C. with Fluo-4 Direct dye (Invitrogen) reconstituted in FLIPR buffer (1×HBSS, 2.5 mM probenecid, and 20 mM HEPES, pH 7.4). After dye loading, cells were placed in a FLIPR^TETRA fluorescence imaging plate reader (Molecular Dynamics). Drug dilutions were prepared at 3× final concentration in drug buffer (1×HBSS, 20 mM HEPES, 0.1% BSA, 0.01% ascorbic acid, pH 7.4) and aliquoted into 384-well plates and placed in the FLIPR^TETRA for drug stimulation. The fluidics module and plate reader of the FLIPR^TETRA were programmed to read baseline fluorescence for 10s (1 read/s), then 10 ul of drug/well was added and read for 5 min (1 read/s). Fluorescence in each well was normalized to the average of the first 10 reads (i.e., baseline fluorescence). Then, the maximum-fold increase, which occurred within the first 60 s after drug addition, was determined and fold over baseline was plotted as a function of drug concentration. Data were normalized to % 5-HT stimulation and analyzed using “log(agonist) vs. response” in GraphPad Prism 9.0.

[2] = target: T2, 5-HT2BR (Homo sapiens, UniProt P41595); assay: Calcium flux assay (FLIPR, Fluo-4), 5-HT2BR stable cell line; format: cell-based; conditions: for 5-HT2BR Rmax ± S.E.M: value in parentheses
T2 construct: expressed in transfected cells; host or cells: Flp-In 293 T-Rex (tetracycline inducible)
Method: Stable cell lines for 5-HT2AR, 5-HT2BR and 5-HT2CR generated using the Flp-In 293 T-Rex Tetracycline inducible system (Invitrogen). Tetracycline-induced cells were seeded in 384-well poly-L-lysine plates at a density of 10,000 cells/well in DMEM containing 1% dialyzed FBS at least 16-24 hr before the calcium flux assay. On the day of the assay, the cells were incubated (20 ul/well) for 1 hr at 37° C. with Fluo-4 Direct dye (Invitrogen) reconstituted in FLIPR buffer (1×HBSS, 2.5 mM probenecid, and 20 mM HEPES, pH 7.4). After dye loading, cells were placed in a FLIPR^TETRA fluorescence imaging plate reader ([…]). Drug dilutions were prepared at 3× final concentration in drug buffer (1×HBSS, 20 mM HEPES, 0.1% BSA, 0.01% ascorbic acid, pH 7.4) and aliquoted into 384-well plates and placed in the FLIPR^TETRA for drug stimulation. The fluidics module and plate reader of the FLIPR^TETRA were programmed to read baseline fluorescence for 10s (1 read/s), then 10 ul of drug/well was added and read for 5 min (1 read/s). Fluorescence in each well was normalized to the average of the first 10 reads (i.e., baseline fluorescence). Then, the maximum-fold increase, which occurred within the first 60 s after drug addition, was determined and fold over baseline was plotted as a function of drug concentration. Data were normalized to % 5-HT stimulation and analyzed using “log(agonist) vs. response” in GraphPad Prism 9.0.

[3] = target: T3, 5-HT2CR (Homo sapiens, UniProt P28335); assay: Calcium flux assay (FLIPR, Fluo-4), 5-HT2CR stable cell line; format: cell-based; conditions: for 5-HT2CR Rmax ± S.E.M: value in parentheses
T3 sequence (P28335 33-458): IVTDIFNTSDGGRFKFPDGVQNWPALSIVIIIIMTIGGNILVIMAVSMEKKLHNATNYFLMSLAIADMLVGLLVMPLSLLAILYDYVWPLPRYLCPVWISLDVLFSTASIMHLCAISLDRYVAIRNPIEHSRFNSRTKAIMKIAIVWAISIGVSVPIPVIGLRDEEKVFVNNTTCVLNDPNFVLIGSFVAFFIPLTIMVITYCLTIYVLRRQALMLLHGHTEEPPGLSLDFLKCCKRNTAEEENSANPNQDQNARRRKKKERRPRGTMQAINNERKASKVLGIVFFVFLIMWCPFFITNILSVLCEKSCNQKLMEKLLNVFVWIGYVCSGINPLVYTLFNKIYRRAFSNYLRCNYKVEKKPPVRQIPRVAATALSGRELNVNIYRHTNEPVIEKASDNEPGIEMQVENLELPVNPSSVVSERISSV
Method: as §1

[4] = target: T1, 5-HT2AR; assay: 5-HT2AR binding affinity (Ki), Table 8
[5] = target: T2, 5-HT2BR; assay: 5-HT2BR binding affinity (Ki), Table 8
[6] = target: T3, 5-HT2CR; assay: 5-HT2CR binding affinity (Ki), Table 8
[7] = bracketed value below EC50, read-out: 5-HT2AR pEC50 ± S.E.M (converted)
[8] = bracketed value below EC50, read-out: 5-HT2BR pEC50 ± S.E.M (converted)
[9] = bracketed value below Ki, read-out: 5-HT2BR pKi ± S.E.M (converted)
[10] = bracketed value below Ki, read-out: 5-HT2CR pKi ± S.E.M (converted)
[11] = bracketed value below Ki, read-out: 5-HT2AR pKi ± S.E.M (converted)

T2 sequence (P41595 whole entry): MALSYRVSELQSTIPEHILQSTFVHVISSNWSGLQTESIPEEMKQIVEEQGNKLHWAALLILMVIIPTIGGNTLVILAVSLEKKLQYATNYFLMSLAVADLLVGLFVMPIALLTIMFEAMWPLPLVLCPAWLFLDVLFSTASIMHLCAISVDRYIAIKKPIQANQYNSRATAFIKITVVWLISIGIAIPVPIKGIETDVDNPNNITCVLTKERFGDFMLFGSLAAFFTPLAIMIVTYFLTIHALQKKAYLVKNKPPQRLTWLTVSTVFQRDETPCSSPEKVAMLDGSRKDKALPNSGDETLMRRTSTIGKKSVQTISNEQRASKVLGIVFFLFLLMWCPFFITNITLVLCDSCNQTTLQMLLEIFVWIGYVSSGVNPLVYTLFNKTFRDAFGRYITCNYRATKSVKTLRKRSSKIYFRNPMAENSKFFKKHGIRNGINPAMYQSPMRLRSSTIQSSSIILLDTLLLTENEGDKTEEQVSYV
T1 sequence (P28223 whole entry): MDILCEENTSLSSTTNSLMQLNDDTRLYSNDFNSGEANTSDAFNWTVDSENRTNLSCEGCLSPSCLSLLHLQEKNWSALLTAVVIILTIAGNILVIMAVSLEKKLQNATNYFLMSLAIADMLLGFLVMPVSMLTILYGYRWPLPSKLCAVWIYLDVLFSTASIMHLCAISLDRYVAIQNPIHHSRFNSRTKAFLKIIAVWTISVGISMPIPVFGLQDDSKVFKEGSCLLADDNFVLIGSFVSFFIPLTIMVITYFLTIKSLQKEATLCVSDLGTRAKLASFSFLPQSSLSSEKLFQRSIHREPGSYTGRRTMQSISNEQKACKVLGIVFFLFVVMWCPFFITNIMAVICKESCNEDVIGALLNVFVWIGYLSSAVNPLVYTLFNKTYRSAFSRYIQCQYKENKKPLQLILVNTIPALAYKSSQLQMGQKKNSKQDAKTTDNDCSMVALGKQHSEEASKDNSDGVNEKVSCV

| SMILES | EC50 ([1]; read-out: 5-HT2AR EC50) [nM] | 5-HT2AR Rmax ± S.E.M [1] | EC50 ([2]; read-out: 5-HT2BR EC50) [nM] | 5-HT2BR Rmax ± S.E.M [2] | EC50 ([3]; read-out: 5-HT2CR EC50) [µM] | Ki ([4]; read-out: 5-HT2AR Ki) [nM] | Ki ([5]; read-out: 5-HT2BR Ki) [nM] | Ki ([6]; read-out: 5-HT2CR Ki) [nM] | 5-HT2BR EC50 [2] | 5-HT2CR EC50 [3] | EC50 [1, 7] [nM] | EC50 [2, 8] [nM] | Ki [5, 9] [nM] | 5-HT2CR Rmax ± S.E.M [3] | Ki [6, 10] [nM] | 5-HT2AR EC50 [1] | Ki [4, 11] [nM] | EC50 ([3]; bracketed value below EC50, read-out: 5-HT2CR pEC50 ± S.E.M (converted)) [µM] |
| --- | --- | --- | --- | --- | --- | --- | --- | --- | --- | --- | --- | --- | --- | --- | --- | --- | --- | --- |
| c1cnc2[nH]cc(C3CCCNC3)c2c1 (single isomer, unassigned) [compound 50, 3-(piperidin-3-yl)-1H-pyrrolo[2,3-b]pyridine] | 1170 | (65.1% | 680 | (47.0% | > 10 | 5250 | 620 | 2730 |  |  |  |  |  |  |  |  |  |  |
| c1cnc2[nH]cc(C3CCCNC3)c2c1 (single isomer, unassigned) [compound 51, 3-(piperidin-3-yl)-1H-pyrrolo[2,3-b]pyridine] | 4210 | (18.2% |  |  |  | 2730 | 500 | 480 | antagonist | antagonist |  |  |  |  |  |  |  |  |
| CCCCCN1CC(c2cncc(Cl)c2)=C[C@H](C)C1 [Compound 10, 5′-chloro-5-methyl-1-pentyl-1,2,5,6-tetrahydro-3,3′-bipyridine] |  | (68.6% |  | (88.9% | > 10 | 7010 |  | 1660 |  |  | 331 | 24.5 | 5.01 |  |  |  |  |  |
| CCCN1CC(c2cncc(Cl)c2)=C[C@H](C)C1 [Compound 16, 5′-Chloro-5-methyl-1-propyl-1,2,5,6-tetrahydro-3,3′-bipyridine] | 1060 | (48.7% |  | (74.9% | 6.76 | 7320 |  | 6520 |  |  | 1050 | 20 | 13.2 | (34.4% | 6310 |  |  |  |
| CCCCN1CC(c2c[nH]c3ncccc23)=C[C@H](C)C1 [Compound 22, 3-(1-butyl-5-methyl-1,2,5,6-tetrahydropyridin-3-yl)-1H-pyrrolo[2,3-b]pyridine] | 2260 | (23.8% |  |  |  | 5270 | 1970 | 7030 | antagonist | antagonist |  |  |  |  | 7410 |  |  |  |
| C[C@H]1C=C(c2c[nH]c3ncccc23)CN(C)C1 [compound 34, (S)-3-(1,5-dimethyl-1,2,5,6-tetrahydropyridin-3-yl)-1H-pyrrolo[2,3-b]pyridine] | 1140 | (7.1% |  |  |  | 1520 | 640 | 750 | antagonist | antagonist |  |  |  |  | 741 |  |  |  |
| C[C@@H]1C=C(c2c[nH]c3ncccc23)CNC1 [compound 38, (R)-3-(5-methyl-1,2,5,6-tetrahydropyridin-3-yl)-1H-pyrrolo[2,3-b]pyridine] |  | (90.1% |  | (82.9% |  | 680 |  |  |  |  |  |  | 295 | (75.0% |  |  |  |  |
| Cc1ncc(CCN2CC(c3c[nH]c4ncccc34)=C[C@@H](C)C2)cn1 [compound 40, (R)-3-(5-methyl-1-(2-(2-methylpyrimidin-5-yl)ethyl)-1,2,5,6-tetrahydropyridin-3-yl)-1H-pyrrolo[2,3-b]pyridine] |  |  | 3820 | (54.5% |  |  | 4090 | 840 |  | antagonist |  |  | 3980 |  |  | antagonist | 398 |  |
| Cc1ncc(CCN2CC(c3c[nH]c4ncccc34)=C[C@H](C)C2)cn1 [compound 41, (S)-3-(5-methyl-1-(2-(2-methylpyrimidin-5-yl)ethyl)-1,2,5,6-tetrahydropyridin-3-yl)-1H-pyrrolo[2,3-b]pyridine] |  |  |  |  |  | 25 | 820 | 30 | antagonist | antagonist |  |  |  |  | 28.8 | antagonist | 25.7 |  |
| C[C@@H]1C=C(c2c[nH]c3ncccc23)CN(CC2CC2)C1 [compound 45, (R)-3-(1-(cyclopropylmethyl)-5-methyl-1,2,5,6-tetrahydropyridin-3-yl)-1H-pyrrolo[2,3-b]pyridine] | 450 | (25.0% |  |  |  | 2920 | > 10000 | 4410 | antagonist | antagonist | 457 |  |  |  |  |  | 2880 |  |
| C[C@H]1C=C(c2c[nH]c3ncccc23)CN(CC2CC2)C1 [compound 46, (S)-3-(1-(cyclopropylmethyl)-5-methyl-1,2,5,6-tetrahydropyridin-3-yl)-1H-pyrrolo[2,3-b]pyridine] |  |  | 1170 | (43.8% |  | 2440 | 2140 | 780 |  | antagonist |  |  |  |  |  | antagonist |  |  |
| C[C@@H]1C=C(c2c[nH]c3ncccc23)CN(Cc2cnco2)C1 [compound 47, (R)-5-((3-methyl-5-(1H-pyrrolo[2,3-b]pyridin-3-yl)-3,6-dihydropyridin-1(2H)-yl)methyl)oxazole] | 990 | (68.3% | 940 | (75.8% | > 10 | 7190 | > 10000 | > 10000 |  |  | 977 |  |  |  |  |  |  |  |
| C1=C(c2c[nH]c3ncccc23)CNCC1 [compound 49, 3-(1,2,5,6-tetrahydropyridin-3-yl)-1H-pyrrolo[2,3-b]pyridine] |  | (43.9% | 630 | (34.8% | 0.82 |  |  |  |  |  | 151 |  | 257 | (45.9% | 288 |  | 398 | 0.832 |
